{"source": "patent US12239705B2", "about": "“Therapeutic mitigation of epithelial infection” (priority 2018, dated 2025)", "key": {"[1]": {"test_system": "PHFK cells", "assay": "Cell viability of differentiated PHFK by LDH and WST-1 assay", "settings": "PHFK differentiated 2 days; 24 hours", "protocol": "Briefly, PHFK cells were differentiated for 2 days in the same manner described above. […] Cell viability was measured by LDH and WST-1 assay 24 hours later."}, "[2]": {"test_system": "vaccinia virus", "assay": "Vaccinia virus plaque formation in IL-4/13-treated PHFK exposed to P6", "format": "cell-based", "settings": "PHFK in IL-4 and IL-13; 50 or 200 nM; 200 pfu VV; three days post infection; n=7 donors"}, "[3]": {"test_system": "PHFK cells", "assay": "TEER barrier function of IL-4/13-treated PHFK exposed to P6", "format": "cell-based, human", "settings": "PHFK in IL-4 and IL-13 for two days; 50 or 100 nM; versus DMSO control", "protocol": "TEER was taken daily. Data was normalized to Th2 treated samples (n=5-7 donors for TEER (SEM)). Significance was tested versus a DMSO control."}}}
{"smiles": "CC(C)(C)c1nc2c3cc[nH]c(=O)c3c3cc(F)ccc3c2[nH]1", "note": "[P6, Pyridone 6]", "values": [{"measurement": "concentration not toxic to keratinocytes (LDH and WST-1)", "setting": "[1]", "result": "≥ 1000", "unit": "nM"}, {"measurement": "keratinocyte susceptibility to viral infection (plaque number normalized to IL-4/13 treated controls)", "setting": "[2]", "result": "reversed keratinocyte susceptibility to viral infection in a dose dependent manner"}, {"measurement": "barrier function (TEER normalized to Th2 treated samples)", "setting": "[3]", "result": "improved barrier function in keratinocytes in a dose dependent manner"}]}
